In PMC3198036 (Frontiers in Pharmacology, 2011):
Several values for one entry are separate records, joined by “and”; a condition that tells them apart may be missing. Equal entries are not always repeated. Structures can show the parent of a compound that is named as a salt. Where two headings read alike, the source gives them in different places.

What was measured:
[1] = target: nicotinic acetylcholine receptors (nAChRs), [^3H]-epibatidine binding sites in rat cerebral cortex
[2] = target: nicotinic acetylcholine receptors (nAChRs), [^3H]-epibatidine binding sites in rat cerebral cortex; assay: Homogenate binding assay with [^3H]-epibatidine, rat cerebral cortex homogenates
[3] = system: nicotinic acetylcholine receptors (nAChRs), [^3H]-epibatidine binding sites in rat cerebellum
[4] = target: nicotinic acetylcholine receptors (nAChRs), [^3H]-epibatidine binding sites in rat cerebellum; remark: listed apart in the source
[5] = system: nAChRs ([^3H]-epibatidine binding sites) in rat cortex and cerebellum; details: in vivo

Row | SMILES | pKihigh [1] | pKilow [1] | pKihigh [2] | pKilow [2] | Competition in the [^3H]-epibatidine binding assay [1] | Competition in the [^3H]-epibatidine binding assay [2] | pKi (single site; one-site fit) [2] | also measured
1 | O=c1cccc2n1C[C@@H]1CNC[C@H]2C1 [Cytisine, cytisine] | 8.7 ± 0.1 | 6.7 ± 0.1 | 9.4 ± 0.0 | 7.2 ± 0.2 | – | – | – | –
2 | CO[C@H]1CC=C2CCN3CCC4=C(CC(=O)OC4)[C@]23C1 [Dihydro-β-erythroidine, dihydro-β-erythroidine] | 7.1 ± 0.1 | 5.7 ± 0.2 | 7.7 ± 0.2 | 6.3 ± 0.1 | – | – | – | –
3 | C[N+](C)(C)CCCCCC[N+](C)(C)C [Hexamethonium, hexamethonium chloride] | – | – | – | – | competitive | competitive | 4.0 ± 0.1 | pKi (single site; cell spans pKihigh and pKilow columns) [1]: 3.4 ± 0.1
4 | CNC1(C)C2CCC(C2)C1(C)C (stereo not drawn) [Mecamylamine, mecamylamine hydrochloride] | – | – | – | – | failed to compete | failed to compete | – | pKi (single site; cell spans pKihigh and pKilow columns) ([1]; cortex segments, 400 pM [^3H]-epibatidine, 28 h, 4°C): NI (NI, no inhibition); pKi (single site; one-site fit) ([2]; cortex homogenates, 200 pM [^3H]-epibatidine, 5 h, 4°C): NI (NI, no inhibition)
5 | CN1CCC[C@H]1c1cccnc1 [Nicotine, nicotine] | 7.8 ± 0.2 and 7.9 ± 0.1 | 6.3 ± 0.2 and 6.5 ± 0.1 | – | – | – | – | 8.4 ± 0.1 | pKi (single site; cell spans pKihigh and pKilow columns) [3]: 7.1 ± 0.2; pKihigh [4]: 8.2 ± 0.1; pKilow [4]: 6.3 ± 0.1; pKi [2]: 8.1 ± 0.1; Upregulation of nAChRs [5]: no upregulation
